The record followed here is patent US12497370B2, “Isoxazoline derivatives” (Elanco Tiergesundheit AG, priority 2019, dated 2025).

The assay relates to fleas (Ctenocephalides felis). As to the kind of experiment: In vitro evaluation of ingestion activity against fleas. As to conditions: flea ingestion test, compound in organic bovine blood (0.5% DMSO), adult fleas, percent mortality between 2 h and 48 h post infestation, read-out: EC50 (the source's name). On the procedure:
In Vitro Evaluation of Ingestion Activity Against Fleas (Ctenocephalides felis)
For flea ingestion tests, serial dilutions of the compound stock were performed using DMSO to achieve the desired range for EC50 and EC90 determination. An aliquot of each compound dilution was added to organic bovine blood with a final DMSO concentration of 0.5% and placed in an artificial feeding container. Fipronil is included to serve as a positive control. Ten newly emerged unfed adult fleas, 0-7 days old Ctenocephalides felis, from a laboratory colony, were aspirated into each vial or cage. The cages for flea ingestion assays were held in a temperature-controlled artificial feeding apparatus to allow continual access to organic bovine blood containing the desired concentration of compound. Fresh aliquots of compound-spiked bovine blood were provided daily for the duration of the study. Fleas were evaluated for percent mortality at various time points between 2 h and 48 h post infestation. Fleas showing normal movement and/or jumping ability were considered viable and those showing no movement after tapping the vials were scored as dead.
As for `Cc1cc(C2=NOC(c3cc(C(F)(F)F)cc(Cl)c3F)(C(F)(F)F)C2)ccc1C(=O)N[C@H]1CC[C@@H](C#N)CC1` (single isomer, unassigned) [Example 3.91, N-(cis-4-cyanocyclohexyl)-2-methyl-4-[(5R or S)-5-[3-chloro-2-fluoro-5-(trifluoromethyl)phenyl]-5-(trifluoromethyl)-4H-isoxazol-3-yl]benzamide], the LC50 is less than 1 µg/mL.

As to `Cc1cc(C2=NOC(c3cc(C(F)(F)F)cc(Cl)c3F)(C(F)(F)F)C2)ccc1C(=O)NC1CS(=O)(=O)C1` (single isomer, unassigned) [Example 3.52, 4-[(5R or S)-5-[3-chloro-2-fluoro-5-(trifluoromethyl)phenyl]-5-(trifluoromethyl)-4H-isoxazol-3-yl]-N-(1,1-dioxothietan-3-yl)-2-methyl-benzamide], the LC50 was less than 1 µg/mL.

In the case of `Cc1cc(C2=NOC(c3cc(C(F)(F)F)cc(Cl)c3F)(C(F)(F)F)C2)ccc1C(=O)NC1CCN(C2CC2)C1=O` (racemic) [Example 3.15, 2-methyl-4-[(5RS)-5-[3-chloro-2-fluoro-5-(trifluoromethyl)phenyl]-5-(trifluoromethyl)-4H-isoxazol-3-yl]-N-[(3RS)-1-cyclopropyl-2-oxo-pyrrolidin-3-yl]benzamide], the LC50 was less than 3 µg/mL.

Take `Cc1cc(C2=NOC(c3cc(C(F)(F)F)cc(Cl)c3F)(C(F)(F)F)C2)ccc1C(=O)N[C@H]1CNC(=O)C1` (single isomer, unassigned) [Example 3.85, 4-[(5R or S)-5-[3-chloro-2-fluoro-5-(trifluoromethyl)phenyl]-5-(trifluoromethyl)-4H-isoxazol-3-yl]-2-methyl-N-[(3R)-5-oxopyrrolidin-3-yl]benzamide]: the LC50 is less than 1 µg/mL.

Take `Cc1cc(C2=NOC(c3cc(C(F)(F)F)cc(Cl)c3F)(C(F)(F)F)C2)ccc1C(=O)NC1CN(S(=O)(=O)N(C)C)C1` (single isomer, unassigned) [Example 3.66, N-[1-(dimethylsulfamoyl)azetidin-3-yl]-2-methyl-4-[(5R or S)-5-[3-chloro-2-fluoro-5-(trifluoromethyl)phenyl]-5-(trifluoromethyl)-4H-isoxazol-3-yl]benzamide]: the LC50 was less than 1 µg/mL.

Consider `Cc1cc(C2=NOC(c3cc(C(F)(F)F)cc(Cl)c3F)(C(F)(F)F)C2)ccc1C(=O)NN1CCN(CC(F)(F)F)C1=O` (racemic) [Example 3.26, 2-methyl-N-[2-oxo-3-(2,2,2-trifluoroethyl)imidazolidin-1-yl]-4-[(5RS)-5-[3-chloro-2-fluoro-5-(trifluoromethyl)phenyl]-5-(trifluoromethyl)-4H-isoxazol-3-yl]benzamide], for which the LC50 was less than 3 µg/mL.

Turning to `Cc1cc(C2=NOC(c3cc(C(F)(F)F)cc(Cl)c3F)(C(F)(F)F)C2)ccc1C(=O)NC1CN(C(N)=O)C1` (single isomer, unassigned) [Example 3.71, 3-[[2-methyl-4-[(5S or R)-5-[3-chloro-2-fluoro-5-(trifluoromethyl)phenyl]-5-(trifluoromethyl)-4H-isoxazol-3-yl]benzoyl]amino]azetidine-1-carboxamide], the LC50 is less than 1 µg/mL.

`Cc1cc(C2=NOC(c3cc(C(F)(F)F)cc(Cl)c3F)(C(F)(F)F)C2)ccc1C(=O)N[C@H]1CC[C@H](C#N)CC1` (single isomer, unassigned) [Example 3.92, N-(trans-4-cyanocyclohexyl)-2-methyl-4-[(5R or S)-5-[3-chloro-2-fluoro-5-(trifluoromethyl)phenyl]-5-(trifluoromethyl)-4H-isoxazol-3-yl]benzamide]: the LC50 is less than 3 µg/mL.

Regarding `Cc1cc(C2=NOC(c3cc(C(F)(F)F)cc(Cl)c3F)(C(F)(F)F)C2)ccc1C(=O)N[C@H]1CN(CC(F)(F)F)C1=O` (single isomer, unassigned) [Example 3.72, 4-[(5R or S)-5-[3-chloro-2-fluoro-5-(trifluoromethyl)phenyl]-5-(trifluoromethyl)-4H-isoxazol-3-yl]-2-methyl-N-[(3S)-2-oxo-1-(2,2,2-trifluoroethyl)azetidin-3-yl]benzamide], the LC50 was less than 3 µg/mL.

For `Cc1cc(C2=NOC(c3cc(C(F)(F)F)cc(Cl)c3F)(C(F)(F)F)C2)ccc1C(=O)NCC(=O)NCC1CC1` (racemic) [Example 3.8, N-[2-(cyclopropylmethylamino)-2-oxo-ethyl]-2-methyl-4-[(5RS)-5-[3-chloro-2-fluoro-5-(trifluoromethyl)phenyl]-5-(trifluoromethyl)-4H-isoxazol-3-yl]benzamide], the LC50 is less than 1 µg/mL.

As to `Cc1cc(C2=NO[C@](c3cc(C(F)(F)F)cc(Cl)c3F)(C(F)(F)F)C2)ccc1C(=O)N[C@H]1C[C@@H](C(F)(F)F)C1` (single isomer, unassigned) [Example 3.74, 2-methyl-4-[(5R or S)-5-[3-chloro-2-fluoro-5-(trifluoromethyl)phenyl]-5-(trifluoromethyl)-4H-isoxazol-3-yl]-N-[cis-3-(trifluoromethyl)cyclobutyl] benzamide], the LC50 was less than 1 µg/mL.

On to `Cc1cc(C2=NOC(c3cc(C(F)(F)F)cc(Cl)c3F)(C(F)(F)F)C2)ccc1C(=O)NCC1(C#N)CC1` (single isomer, unassigned) [Example 3.77, N-[(1-cyanocyclopropyl)methyl]-2-methyl-4-[(5R or S)-5-[3-chloro-2-fluoro-5-(trifluoromethyl)phenyl]-5-(trifluoromethyl)-4H-isoxazol-3-yl]benzamide], for which the LC50 was less than 1 µg/mL.

Consider `Cc1cc(C2=NOC(c3cc(C(F)(F)F)cc(Cl)c3F)(C(F)(F)F)C2)ccc1C(=O)N[C@@H]1CCN(CC(F)(F)F)C1` (single isomer, unassigned) [Example 3.80, 4-[(5S or R)-5-[3-chloro-2-fluoro-5-(trifluoromethyl)phenyl]-5-(trifluoromethyl)-4H-isoxazol-3-yl]-2-methyl-N-[(3R)-1-(2,2,2-trifluoroethyl)pyrrolidin-3-yl]benzamide], for which the LC50 is less than 1 µg/mL.

Turning to `Cc1cc(C2=NOC(c3cc(C(F)(F)F)cc(Cl)c3F)(C(F)(F)F)C2)ccc1C(=O)NC1C[S+]([O-])C1` (single isomer, unassigned) [Example 3.55], the LC50 was less than 1 µg/mL.

Turning to `Cc1cc(C2=NOC(c3cc(C(F)(F)F)cc(Cl)c3F)(C(F)(F)F)C2)ccc1C(=O)NC1CC(F)C1` (single isomer, unassigned) [Example 3.50, N-(3-fluorocyclobutyl)-2-methyl-4-[(5R or S)-5-[3-chloro-2-fluoro-5-(trifluoromethyl)phenyl]-5-(trifluoromethyl)-4H-isoxazol-3-yl]benzamide], the LC50 was less than 1 µg/mL.

With `Cc1cc(C2=NOC(c3cc(C(F)(F)F)cc(Cl)c3F)(C(F)(F)F)C2)ccc1C(=O)N[C@@H]1CNC(=O)C1` (single isomer, unassigned) [Example 3.84, 4-[(5R or S)-5-[3-chloro-2-fluoro-5-(trifluoromethyl)phenyl]-5-(trifluoromethyl)-4H-isoxazol-3-yl]-2-methyl-N-[(3S)-5-oxopyrrolidin-3-yl]benzamide], the LC50 was less than 1 µg/mL.

With `CCN1C[C@H](NC(=O)c2ccc(C3=NOC(c4cc(C(F)(F)F)cc(Cl)c4F)(C(F)(F)F)C3)cc2C)CC1=O` (single isomer, unassigned) [Example 3.87, 4-[(5R or S)-5-[3-chloro-2-fluoro-5-(trifluoromethyl)phenyl]-5-(trifluoromethyl)-4H-isoxazol-3-yl]-N-[(3R)-1-ethyl-5-oxo-pyrrolidin-3-yl]-2-methyl-benzamide], the LC50 is less than 1 µg/mL.
